In US8513271B2, “Pyrimidine compounds as delta opioid receptor modulators” (Janssen Pharmaceutica, NV, priority 2009, dated 2013):
Where “and” joins values, the source holds several entries; their conditions need not be identical. Equal values may be shown once. Read-outs that look alike come from different tables or passages of the source.

Key:
[1] = target: T1, delta opioid receptor (Mus musculus, UniProt P32300); experiment: [35S]GTPγS binding assay in NG108-15 cell membranes (delta opioid functional assay), 200 nM screen; type: biochemical; settings: NG108-15 cell membranes; for GTPγS δ-RelEfficacy @200 nM: 200 nM test compound, relative to calculated max of SNC80 dose response curve; for GTPγS δ-RelEfficacy @200 nM / EC50: averages if tested more than once; for GTPγS δ-opioid receptor Rel Efficacy: relative efficacy from dose response
T1 construct: NG108-15 cell membranes were purchased from Applied Cell Sciences (Rockville, Md.); host or cells: NG108-15 cell membranes
T1 sequence (P32300 whole entry): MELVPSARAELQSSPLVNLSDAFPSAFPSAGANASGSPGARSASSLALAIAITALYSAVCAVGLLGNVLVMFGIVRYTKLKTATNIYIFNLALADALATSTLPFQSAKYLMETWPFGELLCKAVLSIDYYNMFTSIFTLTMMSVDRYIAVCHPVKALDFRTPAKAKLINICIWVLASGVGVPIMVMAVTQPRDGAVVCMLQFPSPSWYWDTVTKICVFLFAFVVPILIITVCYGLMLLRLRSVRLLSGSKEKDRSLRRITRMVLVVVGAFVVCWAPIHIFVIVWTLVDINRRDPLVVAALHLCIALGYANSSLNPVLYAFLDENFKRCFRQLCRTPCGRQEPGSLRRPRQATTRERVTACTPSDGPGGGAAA

[2] = test system: CFA-induced paw radiant heat hypersensitivity; experiment: CFA-induced paw radiant heat hypersensitivity; type: in vivo, rat; settings: Rattus norvegicus, po
[3] = target: hMOR (mu opioid receptor) (Homo sapiens, UniProt P35372); experiment: [35S]GTPγS binding assays in CHO-hMOR cell membranes (mu opioid functional assay); type: biochemical; settings: for inhibition at 10 µM: read-out: GTPγS μ-opioid receptor % Inh @10 μM
hMOR (mu opioid receptor), sequence (P35372 whole entry, looked up): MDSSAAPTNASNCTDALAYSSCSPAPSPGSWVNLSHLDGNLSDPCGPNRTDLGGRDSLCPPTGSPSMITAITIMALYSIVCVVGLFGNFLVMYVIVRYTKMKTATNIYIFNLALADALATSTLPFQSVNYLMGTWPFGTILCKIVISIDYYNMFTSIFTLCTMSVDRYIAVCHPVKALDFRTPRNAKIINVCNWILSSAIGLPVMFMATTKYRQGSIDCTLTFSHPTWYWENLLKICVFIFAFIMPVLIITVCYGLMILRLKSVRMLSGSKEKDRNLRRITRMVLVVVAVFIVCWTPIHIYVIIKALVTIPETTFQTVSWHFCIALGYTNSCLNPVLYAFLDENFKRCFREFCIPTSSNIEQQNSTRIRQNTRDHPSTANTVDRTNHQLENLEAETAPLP

[4] = target: T2, mu opioid receptor (Rattus norvegicus, UniProt P33535); experiment: Rat brain mu opioid receptor binding assay; settings: rat forebrain, [3H]DAMGO ligand
T2 construct: the forebrains were homogenized in Tris buffer in a Teflon®-glass homogenizer; from tissue; host or cells: forebrain of male Wistar rats, particulate (membrane) preparation
T2 sequence (P33535 whole entry): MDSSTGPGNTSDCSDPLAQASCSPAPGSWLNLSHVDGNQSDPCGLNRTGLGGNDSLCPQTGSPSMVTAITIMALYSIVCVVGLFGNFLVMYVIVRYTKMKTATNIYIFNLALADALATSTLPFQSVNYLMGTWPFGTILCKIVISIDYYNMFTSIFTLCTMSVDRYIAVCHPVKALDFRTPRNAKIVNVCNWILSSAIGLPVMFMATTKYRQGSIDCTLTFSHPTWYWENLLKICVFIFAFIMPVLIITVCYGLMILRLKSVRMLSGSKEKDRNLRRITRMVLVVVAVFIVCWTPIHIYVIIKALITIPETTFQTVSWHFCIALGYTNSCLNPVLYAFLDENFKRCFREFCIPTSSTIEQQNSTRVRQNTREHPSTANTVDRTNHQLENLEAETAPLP

[5] = target: T3, delta opioid receptor (Rattus norvegicus, UniProt P33533); experiment: Rat brain delta opioid receptor binding assay; settings: δ-binding (Naltrindole ligand) Ki, rat forebrain, [3H]naltrindole ligand
T3 construct: the forebrains were homogenized in Tris buffer in a Teflon®-glass homogenizer; from tissue; host or cells: forebrain of male Wistar rats, particulate (membrane) preparation
T3 sequence (P33533 whole entry): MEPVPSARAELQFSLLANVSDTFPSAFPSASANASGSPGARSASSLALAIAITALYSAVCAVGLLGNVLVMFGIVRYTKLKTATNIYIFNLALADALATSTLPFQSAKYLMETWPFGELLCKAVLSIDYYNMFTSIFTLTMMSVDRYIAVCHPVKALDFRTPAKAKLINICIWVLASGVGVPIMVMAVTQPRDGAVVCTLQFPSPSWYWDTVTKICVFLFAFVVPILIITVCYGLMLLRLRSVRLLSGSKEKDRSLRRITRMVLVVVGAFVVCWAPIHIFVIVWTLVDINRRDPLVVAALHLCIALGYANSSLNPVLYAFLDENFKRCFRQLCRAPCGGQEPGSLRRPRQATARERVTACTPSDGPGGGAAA

[6] = target: T1, delta opioid receptor; experiment: NG108-15, 24-well delta opioid receptor binding assay
[7] = GTPγS δ-opioid receptor EC50 (μM)
[8] = 1 h, read-out: maximum % reversal @ time (min), rat, 30 mg/kg p.o., 0.5% HPMC, @ 60 min
[9] = 0.5 h, read-out: maximum % reversal @ time (min), rat, 30 mg/kg p.o., 0.5% HPMC, @ 30 min

Row | Structure (SMILES) | EC50 [1, 7] | GTPγS δ-opioid receptor Rel Efficacy [1] | inhibition at 10 µM [3] [%] | Ki ([4]; μ-binding Ki) [nM] | Ki [5] [nM] | inhibition in vivo at 30 mg/kg [2, 8] [%] | further results
1 | COc1ccc(Oc2nc(-c3cncc(SC)c3)ncc2NC[C@@H]2CCCN2)cc1 [Cpd 107, [4-(4-Methoxy-phenoxy)-2-(5-methylsulfanyl-pyridin-3-yl)-pyrimidin-5-yl]-pyrrolidin-2-(S)-ylmethyl-amine] | 0.0213 µM | 0.957 | 4.05 | 39 | 1 |  | GTPγS δ-RelEfficacy @200 nM [1]: 1.046; ED50 ([2]; 2 h): 32 mg/kg; inhibition in vivo at 100 mg/kg ([2]; 2 h, read-out: maximum % reversal @ time (min), rat, 100 mg/kg p.o., 0.5% HPMC, @ 120 min): 52.8%; EC50 [3]: 5100 nM
2 | COc1ccc(Oc2nc(-c3cccnc3)ncc2N2CCNC[C@@H]2C)cc1 [Cpd 354] | 0.026 µM | 1.050 |  |  |  | 24.7 | 
3 | COc1ccc(Oc2nc(-c3cncc(C#N)c3)ncc2NC[C@@H]2C[C@@H](F)CN2)cc1 [Cpd 134] | 0.004 µM | 1.087 | 1 | 27 |  |  | Ki [6]: 0.0481 nM; EC50 [3]: 2780 nM
4 | COc1ccc(Oc2nc(-c3cncc(C)c3)ncc2NC[C@@H]2C[C@@H](F)CN2)cc1 [Cpd 238] | 0.008 µM | 0.966 |  |  |  | 39.5 | 
5 | COc1ccc(Oc2nc(-c3cncc(C#N)c3)ncc2NC[C@@H]2CCCN2)c(F)c1F [Cpd 101] |  |  | 16.6 | 58 | 7 |  | EC50 ([1]; read-out: GTPγS δ-opioid receptor EC50): 0.103 µM; EC50 ([3]; CHO-hMOR cell membranes, read-out: GTPγS μ-opioid receptor EC50): > 10000 nM
6 | COc1ccc(Oc2nc(-c3cncc(C#N)c3)ncc2NC[C@@H]2CCCN2)cc1F [Cpd 132] | 0.015 µM | 1.042 | 9.4 | 61 |  |  | Ki [6]: 0.4 nM; EC50 [3]: 9280 nM
7 | CCOc1ccc(Oc2nc(-c3cncc(F)c3)ncc2NC[C@@H]2CCCN2)cc1 [Cpd 106] | 0.027 µM | 1.019 | 17 | 42 | 6 |  | EC50 [3]: > 10000 nM
8 | COc1ccc(Oc2nc(-c3cncc(OC)c3)ncc2NC[C@@H]2CCCN2)cc1 [Cpd 68] | 0.031 µM | 0.912 | 11.5 | 465 | 2 |  | 
9 | COc1ccc(Oc2nc(-c3cncc(C)c3)ncc2NC[C@@H]2CCCN2)cc1 [Cpd 253] | 0.0168 µM | 0.997 |  |  |  | 75.9 | 
10 | COc1ccc(Oc2nc(-c3cncc(F)c3)ncc2NC[C@@H]2CCCN2)cc1 [Cpd 54] |  |  |  |  | 0.33 |  | inhibition in vivo at 100 mg/kg ([2]; 1 h, read-out: maximum % reversal @ time (min), rat, 100 mg/kg p.o., 0.5% HPMC, @ 60 min): 17.8%; inhibition in vivo at 100 mg/kg ([2]; 3 h, read-out: maximum % reversal @ time (min), rat, 100 mg/kg p.o., 0.5% HPMC, @ 180 min): 32.7%; Ki [6]: 0.188 nM; Ki ([4]; read-out: μ-binding Ki): 217 nM
11 | COc1ccc(Oc2nc(-c3cccnc3)ncc2N2CCCNCC2)cc1 [Cpd 336] | 0.0502 µM | 1.009 | 17.1 |  |  |  | GTPγS δ-RelEfficacy @200 nM [1]: 0.830; inhibition in vivo at 30 mg/kg [2, 9]: 23.4%
12 | COc1ccc(Oc2nc(-c3cccnc3)ncc2N2CCNCC2)cc1 [Cpd 327, 4-(4-Methoxy-phenoxy)-5-piperazin-1-yl-2-pyridin-3-yl-pyrimidine] | 0.0527 µM | 1.037 | 4.26 |  |  | 102 | GTPγS δ-RelEfficacy @200 nM [1]: 0.471; ED50 ([2]; 1 h): 14.3 mg/kg
13 | COc1ccc(Oc2nc(-c3cncc(OC)c3)ncc2NC[C@@H]2C[C@@H](F)CN2)cc1 [Cpd 235] | 0.00733 µM | 0.953 |  |  |  | 43.7 | GTPγS δ-RelEfficacy @200 nM [1]: 0.962
14 | COc1ccc(Oc2nc(-c3cncc(OC)c3)ncc2N2CCCNCC2)cc1 [Cpd 346] | 0.047 µM | 1.031 |  |  |  |  | inhibition in vivo at 30 mg/kg [2, 9]: 37%
15 | COc1ccc(Oc2nc(-c3cncc(C)c3)ncc2N2CCNCC2)cc1 [Cpd 351] | 0.0249 µM and 0.034 µM | 1.036 and 1.056 |  |  |  |  | inhibition in vivo at 30 mg/kg [2, 9]: 9.8%
